Laboratory results published in patent US20260317324A1, “BIFUNCTIONAL COMPOUNDS FOR DEGRADING BRAF VIA UBIQUITIN PROTEOSOME PATHWAY” (Nurix Therapeutics, Inc., priority 2023, published 2026).

Tests used:
Assay type in all cases: cell-based
BRAF V600E = target: T1, BRAF V600E (Homo sapiens, UniProt P15056, V600E); test: BRAF HiBiT degradation assay, C-terminal HiBiT-tagged BRAF V600E A375 cells (clone 1F10), Nano-Glo HiBiT Lytic assay; details: A375 (BRAF V600E); for DC50: DC50 at 50%: fitted conc. at Y=50; for Dmax: A-375, percentage protein degraded at maximal compound effect relative to DMSO
T1 construct: endogenous C-terminal HiBiT fusion tag on BRAF V600E allele; endogenous in cells; host or cells: A375 clone 1F10 (CRISPR-Cas9 knock-in of the HiBiT tag; parental A375 from ATCC)
Procedure, shortened: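 Endogenous BRAF V600E-HiBiT A375 (1F10), 10,000 cells/well, 24 h preculture; cpd 11-pt, 1 μM–0.01 nM half-log, n=2, 0.2% DMSO; HiBiT lytic detection 10 min RT; DC50 = fitted conc at Y=50; Obs. Dmax vs DMSO.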

BRAF G466V = target: T2, BRAF G466V (Homo sapiens, UniProt P15056, G466V); test: BRAF HiBiT degradation assay, C-terminal HiBiT-tagged BRAF G466V overexpressed in HCT-116 BRAF−/− cells (clone 8), Nano-Glo HiBiT Lytic assay; details: BRAF G466V; for DC50: DC50 at 50%: fitted conc. at Y=50; for Dmax: HCT-116, percentage protein degraded at maximal compound effect relative to DMSO
T2 construct: Horizon Discovery (HCT-116 BRAF−/− cells); host or cells: HCT-116 BRAF−/− cells, clone 8, lentiviral transduction
Procedure, shortened: (§1)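 Luminescence from the lytic HiBiT reagent, read after 10 min at room temperature, measured tagged BRAF remaining in lentivirally transduced HCT-116 BRAF−/− cells. Compounds were tested from 1 μM to 0.01 nM in half-log steps at 0.2% DMSO. DC50 values were fitted at 50% remaining.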

BRAF G469A = target: T3, BRAF G469A (Homo sapiens, UniProt P15056, G469A); test: BRAF HiBiT degradation assay, C-terminal HiBiT-tagged BRAF G469A overexpressed in HCT-116 BRAF−/− cells (clone 34), Nano-Glo HiBiT Lytic assay; details: Class 2, BRAF G469A; for DC50: DC50 at 50%: fitted conc. at Y=50; for Dmax: HCT-116, percentage protein degraded at maximal compound effect relative to DMSO
T3 construct: Horizon Discovery (HCT-116 BRAF−/− cells); host or cells: HCT-116 BRAF−/− cells, clone 34, lentiviral transduction
Procedure, shortened: as §1

BRAF D594G = target: T4, BRAF D594G (Homo sapiens, UniProt P15056, D594G); test: BRAF HiBiT degradation assay, C-terminal HiBiT-tagged BRAF D594G overexpressed in HCT-116 BRAF−/− cells (clone 63), Nano-Glo HiBiT Lytic assay; details: BRAF D594G; for DC50: DC50 at 50%: fitted conc. at Y=50; for Dmax: HCT-116, percentage protein degraded at maximal compound effect relative to DMSO
T4 construct: Horizon Discovery (HCT-116 BRAF−/− cells); host or cells: HCT-116 BRAF−/− cells, clone 63, lentiviral transduction
Procedure, shortened: as §1

T2 sequence (P15056 whole entry G466V): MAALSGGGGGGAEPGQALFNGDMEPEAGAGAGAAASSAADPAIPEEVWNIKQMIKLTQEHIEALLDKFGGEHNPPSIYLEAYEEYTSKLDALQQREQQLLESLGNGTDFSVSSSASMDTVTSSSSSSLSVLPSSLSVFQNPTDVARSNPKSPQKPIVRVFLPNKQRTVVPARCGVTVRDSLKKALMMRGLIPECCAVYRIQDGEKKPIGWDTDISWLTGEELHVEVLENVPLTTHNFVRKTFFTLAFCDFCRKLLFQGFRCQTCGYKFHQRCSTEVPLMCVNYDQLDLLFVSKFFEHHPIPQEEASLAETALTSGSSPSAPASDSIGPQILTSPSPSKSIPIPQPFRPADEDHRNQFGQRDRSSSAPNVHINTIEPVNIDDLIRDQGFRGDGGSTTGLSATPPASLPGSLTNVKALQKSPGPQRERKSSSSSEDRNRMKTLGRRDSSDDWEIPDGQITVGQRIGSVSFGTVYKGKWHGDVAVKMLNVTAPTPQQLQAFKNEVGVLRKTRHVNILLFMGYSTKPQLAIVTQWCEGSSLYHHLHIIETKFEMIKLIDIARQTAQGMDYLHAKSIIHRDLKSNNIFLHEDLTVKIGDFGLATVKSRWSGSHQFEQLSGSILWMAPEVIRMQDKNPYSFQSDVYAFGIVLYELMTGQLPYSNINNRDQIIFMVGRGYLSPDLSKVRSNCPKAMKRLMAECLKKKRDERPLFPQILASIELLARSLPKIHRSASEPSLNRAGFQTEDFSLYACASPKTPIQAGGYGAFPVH
T3 sequence (P15056 whole entry G469A): as the sequence (P15056 whole entry G466V) above, with V466G, G469A counted along it
T1 sequence (P15056 whole entry V600E, the tested form may be a part): as the sequence (P15056 whole entry G466V) above, with V466G, V600E counted along it
T4 sequence (P15056 whole entry D594G): as the sequence (P15056 whole entry G466V) above, with V466G, D594G counted along it

Compound | DC50 (BRAF V600E) | Dmax (BRAF V600E) | DC50 (BRAF G466V) | Dmax (BRAF G466V) | DC50 (BRAF G469A) | Dmax (BRAF G469A) | DC50 (BRAF D594G) | Dmax (BRAF D594G)
CCCS(=O)(=O)Nc1cccc(-c2nc(C(C)(C)C)sc2-c2ccnc(Nc3ccc(N4CCN(C(=O)C5CCN(c6ccc(C7CCC(=O)NC7=O)cn6)CC5)CC4)c(F)c3)n2)c1F (racemic) [Compound 57, Rac-N-(3-{2-tert-butyl-5-[2-({4-[4-(1-{5-[(3R)-2,6-dioxopiperidin-3-yl]pyridin-2-yl}piperidine-4-carbonyl)piperazin-1-yl]-3-fluorophenyl}amino)pyrimidin-4-yl]-1,3-thiazol-4-yl}-2-fluorophenyl)propane-1-sulfonamide] | < 10 nM | > 70% | > 500 nM | 30 to 70% | > 500 nM | 30 to 70% | > 500 nM | 30 to 70%
CCCS(=O)(=O)Nc1cccc(-c2nc(C)sc2-c2ccnc(Nc3ccc(N4CCN(CC5CCN(c6ccc(C7CCC(=O)NC7=O)cn6)CC5)CC4)cn3)n2)c1F (racemic) [Compound 62, Rac-N-[3-(5-{2-[(5-{4-[(1-{5-[(3R)-2,6-dioxopiperidin-3-yl]pyridin-2-yl}piperidin-4-yl)methyl]piperazin-1-yl}pyridin-2-yl)amino]pyrimidin-4-yl}-2-methyl-1,3-thiazol-4-yl)-2-fluorophenyl]propane-1-sulfonamide] | < 10 nM | > 70% | 10 to 50 nM | 30 to 70% | < 10 nM | 30 to 70% | > 500 nM | 30 to 70%
CCCS(=O)(=O)Nc1cccc(-c2nc(C(C)(C)C)sc2-c2ccnc(Nc3ccc(N4CCN(C(=O)C5CCN(c6ccc(C7CCC(=O)NC7=O)cc6)CC5)CC4)c(F)c3)n2)c1F (racemic) [Compound 65, Rac-N-(3-{2-tert-butyl-5-[2-({4-[4-(1-{4-[(3R)-2,6-dioxopiperidin-3-yl]phenyl}piperidine-4-carbonyl)piperazin-1-yl]-3-fluorophenyl}amino)pyrimidin-4-yl]-1,3-thiazol-4-yl}-2-fluorophenyl)propane-1-sulfonamide] | < 10 nM | > 70% | > 500 nM | 30 to 70% | > 500 nM | 30 to 70% | > 500 nM | 30 to 70%
CCCS(=O)(=O)Nc1cccc(-c2nc(C(C)(C)C)sc2-c2ccnc(Nc3cccc(OC4CCN(CC5(C)CCN(c6ccc(C7CCC(=O)NC7=O)cn6)CC5)CC4)c3)n2)c1F (racemic) [Compound 68, Rac-N-{3-[2-tert-butyl-5-(2-{[3-({1-[(1-{5-[(3R)-2,6-dioxopiperidin-3-yl]pyridin-2-yl}-4-methylpiperidin-4-yl)methyl]piperidin-4-yl}oxy)phenyl]amino}pyrimidin-4-yl)-1,3-thiazol-4-yl]-2-fluorophenyl}propane-1-sulfonamide] | 10 to 50 nM | > 70% | 50 to 500 nM | 30 to 70% | 50 to 500 nM | 30 to 70% | > 500 nM | 30 to 70%
CCCS(=O)(=O)Nc1cccc(-c2nc(C(C)(C)C)sc2-c2ccnc(Nc3cccc(OC4CCN(C[C@H]5CC[C@H](Oc6ccc(C7CCC(=O)NC7=O)cc6)CC5)CC4)c3)n2)c1F (mixture of isomers) [Compound 72, N-(3-(2-(tert-butyl)-5-(2-((3-((1-(((1R,4r)-4-(4-((RS)-2,6-dioxopiperidin-3-yl)phenoxy)cyclohexyl)methyl)piperidin-4-yl)oxy)phenyl)amino)pyrimidin-4-yl)thiazol-4-yl)-2-fluorophenyl)propane-1-sulfonamide] | 10 to 50 nM | 30 to 70% | > 500 nM | 30 to 70% | > 500 nM | < 30% | > 500 nM | 30 to 70%
CCCS(=O)(=O)Nc1cccc(-c2nc(C(C)(C)C)sc2-c2ccnc(Nc3cccc(C4CCN(CC5CCN(c6ccc7c(=O)n(C8CCC(=O)NC8=O)ccc7c6)CC5)CC4)c3)n2)c1F (racemic) [Compound 76, Rac-N-[3-(2-tert-butyl-5-{2-[(3-{1-[(1-{2-[(3R)-2,6-dioxopiperidin-3-yl]-1-oxo-1,2-dihydroisoquinolin-6-yl}piperidin-4-yl)methyl]piperidin-4-yl}phenyl)amino]pyrimidin-4-yl}-1,3-thiazol-4-yl)-2-fluorophenyl]propane-1-sulfonamide] | 10 to 50 nM | 30 to 70% | > 500 nM | < 30% | > 500 nM | < 30% | > 500 nM | < 30%
CCCS(=O)(=O)Nc1cccc(-c2nc(C(C)(C)C)sc2-c2ccnc(Nc3cnn(C4CCN(CC5CCN(c6ccc7c(=O)n(C8CCC(=O)NC8=O)ccc7c6)CC5)CC4)c3)n2)c1F (racemic) [Compound 80, Rac-N-[3-(2-tert-butyl-5-{2-[(1-f{1-[(1-{2-[(3R)-2,6-dioxopiperidin-3-yl]-1-oxo-1,2-dihydroisoquinolin-6-yl}piperidin-4-yl)methyl]piperidin-4-yl}-1H-pyrazol-4-yl)amino]pyrimidin-4-yl}-1,3-thiazol-4-yl)-2-fluorophenyl]propane-1-sulfonamide] | < 10 nM | > 70% | > 500 nM | 30 to 70% | > 500 nM | < 30% | > 500 nM | 30 to 70%
CCCS(=O)(=O)Nc1cccc(-c2nc(C(C)(C)C)sc2-c2ccnc(Nc3cnn(CC4CCN(CC5CCN(c6ccc7c(=O)n(C8CCC(=O)NC8=O)ccc7c6)CC5)CC4)c3)n2)c1F (racemic) [Compound 83, Rac-N-{3-[2-tert-butyl-5-(2-{[1-({1-[(1-{2-[(3R)-2,6-dioxopiperidin-3-yl]-1-oxo-1,2-dihydroisoquinolin-6-yl}piperidin-4-yl)methyl]piperidin-4-yl}methyl)-1H-pyrazol-4-yl]amino}pyrimidin-4-yl)-1,3-thiazol-4-yl]-2-fluorophenyl}propane-1-sulfonamide] | < 10 nM | > 70% | 50 to 500 nM | < 30% | 50 to 500 nM | < 30% | 50 to 500 nM | < 30%
CCCS(=O)(=O)Nc1cccc(-c2nc(C(C)(C)C)sc2-c2ccnc(Nc3cnn(CC4CCN(C[C@H]5CC[C@H](Oc6ccc(C7CCC(=O)NC7=O)cc6)CC5)CC4)c3)n2)c1F (mixture of isomers) [Compound 84, N-(3-{2-tert-butyl-5-[2-({1-[(1-{[(1r,4r)-4-{4-[(3RS)-2,6-dioxopiperidin-3-yl]phenoxy}cyclohexyl]methyl}piperidin-4-yl)methyl]-1H-pyrazol-4-yl}amino)pyrimidin-4-yl]-1,3-thiazol-4-yl}-2-fluorophenyl)propane-1-sulfonamide] | 50 to 500 nM | > 70% | > 500 nM | < 30% | > 500 nM | < 30% | > 500 nM | 30 to 70%
